Measurements as given in patent publication US20240335462A1, “SULFUR/PHOSPHORUS-CONTAINING ARYL COMPOUND AND APPLICATION THEREOF” (MEDSHINE DISCOVERY INC., priority 2021, published 2024).
Counter-ions that a name gives are not always drawn.

target: TYK2 JH2 pseudokinase (Homo sapiens, UniProt P29597); experiment: Inhibitory activity on TYK2 JH2 pseudokinase (TR-FRET); type: binding; details: 60 min room temperature, read-out: Kinase half maximal inhibitory concentration IC50 TYK2 JH2
Method: In this experiment, the inhibitory effect of compounds on TYK2 JH2 pseudokinase was tested using the method of time-resolved fluorescence resonance energy transfer (TR-FRET). In the experiment, TYK2 JH2 or JAK1 JH2 pseudokinase can simultaneously bind to fluorescently labeled Tracer and Tb antibody to form a “sandwich structure”. Tb antibody, functioning as a fluorescent donor, produces fluorescence at a wavelength of 495 nm under the excitation of light at a specific wavelength. Tracer, functioning as a fluorescent acceptor, can receive fluorescence at a wavelength of 495 nm and thus produce fluorescence at a wavelength of 520 nm, i.e., a time-resolved fluorescence resonance energy transfer (TR-FRET) signal, only when it is within the “sandwich structure”, i.e., when it is sufficiently close to Tb antibody. When the compound is added to compete with Tracer for binding to the pseudokinase, the binding of Tracer decreases, leading to a weakened TR-FRET signal. The inhibitory activity of the compound binding to the pseudokinase can be reflected by the ratio of signal values at 520 nm/495 nm.
The working solution consists of the following components: HEPES (pH 7.5) at a final concentration of 20 mM; MgCl2 at a final concentration of 10 mM; Brij-35 at a final concentration of 0.015%; DTT at a final concentration of 2 mM; and BSA at a final concentration of 50 μg/mL.
• a) The compound was dissolved in DMSO to achieve a storage concentration of 10 mM. • b) Various concentrations of the compound, 200 times the final concentration, were prepared in a compound dilution plate and transferred to an Echo plate. • c) The Echo instrument was used to transfer 150 nL of the compound from the Echo plate to a 384-well experimental plate. • d) 5 μL of TYK2 JH2 kinase, at three times the final concentration, was added to the 384-well experimental plate. • e) 5 μL of Tb, at three times the final concentration, was added to the 384-well experimental plate. • f) 5 μL of Tracer, at three times the final concentration, was added to the 384-well experimental plate. • g) The plate was centrifuged for 30 seconds and then incubated at room temperature for 60 minutes. • h) The fluorescence signal values at 520 nm/495 nm were measured using an Envision plate reader (PerkinElmer).
Data analysis was performed using the XL-Fit software to determine the IC50 of the compounds.

TYK2 JH2 pseudokinase, sequence (P29597 589-875 limits assumed): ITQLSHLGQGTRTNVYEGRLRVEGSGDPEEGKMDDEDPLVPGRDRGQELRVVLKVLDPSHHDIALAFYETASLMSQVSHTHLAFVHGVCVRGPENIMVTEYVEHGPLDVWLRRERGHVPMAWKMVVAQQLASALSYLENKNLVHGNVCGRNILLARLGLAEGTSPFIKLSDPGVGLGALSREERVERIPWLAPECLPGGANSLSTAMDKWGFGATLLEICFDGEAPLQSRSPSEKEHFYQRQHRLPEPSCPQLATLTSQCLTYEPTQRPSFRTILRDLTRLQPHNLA

`[2H]C([2H])([2H])NC(=O)c1cnc(NC(=O)C2CC2)cc1Nc1cccc(-c2ncc(S(C)(=O)=O)cn2)c1OC` [Hydrochloride of WX-001] and `[2H]C([2H])([2H])NC(=O)c1cnc(NC(=O)C2CC2)cc1Nc1cccc(-c2ncc(S(C)(=N)=O)cn2)c1OC` (centres unmarked) [WX-003] are within 1.5-fold of each other in IC50: 0.27 nM for the first, 0.34 nM for the second.

`[2H]C([2H])([2H])NC(=O)c1cnc(NC(=O)C2CC2)cc1Nc1cccc(-c2ncc([S+](C)[O-])cn2)c1OC` (centres unmarked) [Hydrochloride of WX-002] and `[2H]C([2H])([2H])NC(=O)c1cnc(NC(=O)C2CC2)cc1Nc1cccc(-c2ccc(S(C)(=O)=O)cn2)c1OC` [WX-004] are within 1.5-fold of each other in IC50: 0.19 nM for the first, 0.2 nM for the second.

Work on `CNC(=O)c1cnc(NC(=O)C2CC2)cc1Nc1cccc(-c2ncc(S(=O)(=O)N3CCC3)cn2)c1OC` [Hydrochloride of WX-018] yielded an IC50 of 0.13 nM.

target: Ba/F3-FL-TYK2-E957D cells (Homo sapiens, UniProt P29597, E957D, cells depend on it); experiment: Proliferation of Ba/F3-FL-TYK2-E957D cells (CellTiter-Glo); type: cell-based, mouse; details: 72 hours, read-out: Half maximal inhibitory concentration IC50 for cells Ba/F3-FL-TYK2-E957D
Sequence (P29597 whole entry E957D): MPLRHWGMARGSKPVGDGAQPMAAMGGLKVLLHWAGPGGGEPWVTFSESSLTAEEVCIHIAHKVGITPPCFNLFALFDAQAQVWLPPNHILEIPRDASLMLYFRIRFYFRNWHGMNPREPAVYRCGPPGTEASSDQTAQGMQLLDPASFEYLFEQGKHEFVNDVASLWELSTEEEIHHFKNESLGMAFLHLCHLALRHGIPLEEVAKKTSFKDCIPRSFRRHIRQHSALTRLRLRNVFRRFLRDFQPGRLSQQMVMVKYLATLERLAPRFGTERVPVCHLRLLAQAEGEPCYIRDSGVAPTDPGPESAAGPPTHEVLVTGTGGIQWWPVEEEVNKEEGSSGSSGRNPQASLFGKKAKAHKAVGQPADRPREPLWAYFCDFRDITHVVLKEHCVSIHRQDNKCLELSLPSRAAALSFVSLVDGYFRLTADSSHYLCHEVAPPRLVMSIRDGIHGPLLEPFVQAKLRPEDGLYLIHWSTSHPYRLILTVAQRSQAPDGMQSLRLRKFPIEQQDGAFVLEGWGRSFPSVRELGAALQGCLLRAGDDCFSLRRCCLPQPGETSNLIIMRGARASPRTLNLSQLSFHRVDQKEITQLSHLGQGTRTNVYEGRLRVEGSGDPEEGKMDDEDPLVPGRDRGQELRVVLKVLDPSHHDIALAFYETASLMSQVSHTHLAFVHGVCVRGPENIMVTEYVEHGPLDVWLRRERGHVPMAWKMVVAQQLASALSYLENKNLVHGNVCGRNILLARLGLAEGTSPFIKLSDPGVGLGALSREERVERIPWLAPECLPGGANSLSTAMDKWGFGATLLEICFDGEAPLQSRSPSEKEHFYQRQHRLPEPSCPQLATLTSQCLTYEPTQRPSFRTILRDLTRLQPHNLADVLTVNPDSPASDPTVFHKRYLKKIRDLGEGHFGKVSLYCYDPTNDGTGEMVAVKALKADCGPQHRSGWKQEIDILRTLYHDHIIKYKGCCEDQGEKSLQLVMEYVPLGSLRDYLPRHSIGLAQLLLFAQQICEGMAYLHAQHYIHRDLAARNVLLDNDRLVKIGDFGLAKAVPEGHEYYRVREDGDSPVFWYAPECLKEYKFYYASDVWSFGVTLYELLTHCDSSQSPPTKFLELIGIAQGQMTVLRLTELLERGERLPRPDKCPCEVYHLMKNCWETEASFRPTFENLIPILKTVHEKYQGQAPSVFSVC
From the text: Adenosine triphosphate (ATP) serves as a universal energy carrier in various life processes, representing the smallest unit of energy storage and transfer. The CellTiter-Glo™ Luminescent Cell Viability Assay Kit utilizes luciferase as a detection agent. During the luminescent process, luciferase requires the participation of ATP. By adding CellTiter-Glo™ reagent to the cell culture medium and measuring the luminescence, the light signal was directly proportional to the amount of ATP in the system, and ATP was positively correlated with the number of viable cells. Therefore, cell proliferation can be detected by measuring ATP content using the CellTiter-Glo kit. In this test, the cell lines used were Ba/F3-FL-TYK2-E957D and Ba/F3-TEL-TYK2. Ba/F3-FL-TYK2-E957D cells can stably express the exogenously introduced human TYK2-E957D gene, and the TYK2-E957D gene sequence contains both JH1 and JH2 domains. On the other hand, Ba/F3-TEL-TYK2 cells can stably express the exogenously introduced human TEL-TYK2 gene, and the TEL-TYK2 gene sequence contains only the JH1 domain of TYK2.
The cell lines were cultured in an incubator at 37° C. with 5% CO2. Regular passaging was performed, and cells in the logarithmic growth phase were selected for plating.
• a) The test compounds were prepared into a 10 mM solution with DMSO, and then diluted to 0.3 or 1 mM with DMSO. • b) Preparation of 1000× compound storage plate (tube): The compounds were 3-fold serially diluted from the highest concentration to the lowest concentration, creating 9 different concentrations. • c) Preparation of 20× compound working solution: 49 μL of cell culture medium was added to a flat-bottomed 96-well transparent drug plate. From the 1000× compound storage plate, 1 μL of the compound was pipetted into the cell culture medium in the 96-well transparent drug plate. In the solvent control, 1 μL of DMSO was added. After the compound or DMSO was added, the mixture was homogenized using a multi-channel pipette.
• a) Cells were stained with trypan blue and viable cells were counted to ensure a cell viability of 90% or more. • b) 95 μL of cell suspension (2000 cells/well) was added to each well of the compound assay cell plate, and cell-free culture medium containing 0.1% DMSO was added to the Min control wells. • c) Administration in the compound assay cell plate: 5 μL of 20× compound working solution was added to the cell culture plate. 5 μL of DMSO-cell culture medium mixture was added to the Max control wells. The final concentration of DMSO was 0.1%. • d) The culture plate was then incubated in an incubator at 37° C. with 5% CO2 for 72 hours.
The following steps were conducted in accordance with the instructions of the Promega CellTiter-Glo Luminescent Cell Viability Assay Kit (Promega-G7573). • a) CellTiter-Glo buffer was thawed and brought to room temperature. • b) CellTiter-Glo substrate was also brought to room temperature. • c) CellTiter-Glo buffer was added to a bottle of CellTiter-Glo substrate to dissolve the substrate, thereby preparing CellTiter-Glo working solution. • d) The mixture was slowly vortexed and shaken to be fully dissolved. • e) The cell culture plate was removed and allowed to equilibrate to room temperature for 10 minutes. • f) 50 μL (equal to half the volume of cell culture medium in each well) of CellTiter-Glo working solution was added to each well. • g) The culture plate was shaken on an orbital shaker for 2 minutes to induce cell lysis. • h) The plate was then left at room temperature for 10 minutes to stabilize the luminescent signal. • i) The luminescent signal was detected using a SpectraMax Paradigm plate reader.
Data analysis was conducted using GraphPad Prism 5.0 software. Nonlinear S-curve regression was employed to fit the data and generate dose-response curves. From these curves, the IC50 values were calculated.

First: [2H]C([2H])([2H])NC(=O)c1cnc(NC(=O)C2CC2)cc1Nc1cccc(-c2ncc(S(C)(=O)=O)cn2)c1OC [Hydrochloride of WX-001]
Second: [2H]C([2H])([2H])NC(=O)c1cnc(NC(=O)C2CC2)cc1Nc1cccc(-c2ncc(S(=O)(=O)N(C)C)cn2)c1OC [WX-005]
The GI50 of the first is 6.2-fold higher: 13.7 nM for the first, 2.2 nM for the second.

First: [2H]C([2H])([2H])NC(=O)c1cnc(NC(=O)C2CC2)cc1Nc1cccc(-c2ncc([S+](C)[O-])cn2)c1OC (centres unmarked) [Hydrochloride of WX-002]
Second: [2H]C([2H])([2H])NC(=O)c1cnc(NC(=O)C2CC2)cc1Nc1cccc(-c2ncc(S(=O)(=O)N3CCCC3)cn2)c1OC [Hydrochloride of WX-006]
The GI50 of the first is 1.8-fold higher: 19.2 nM for the first, 10.6 nM for the second.

Compared with `[2H]C([2H])([2H])NC(=O)c1cnc(NC(=O)C2CC2)cc1Nc1cccc(-c2ccc(S(C)(=O)=O)cn2)c1OC` [WX-004], `[2H]C([2H])([2H])NC(=O)c1cnc(NC(=O)C2CC2)cc1Nc1cccc(-c2ccc(S(C)(=O)=O)cc2)c1OC` [Hydrochloride of WX-007] is 1.7-fold higher in GI50: 5.5 nM for the first, 9.5 nM for the second.

Going from `CNC(=O)c1nnc(NC(=O)C2CC2)cc1Nc1cccc(-c2ncc(S(=N)(=O)C3CC3)cn2)c1OC` (centres unmarked) [WX-028] to `CN=S(=O)(c1cnc(-c2cccc(Nc3cc(NC(=O)C4CC4)nnc3C(=O)NC)c2OC)nc1)C(C)C` (centres unmarked) [WX-013], the GI50 rises from 4 nM to 12.1 nM (3-fold).

`CNC(=O)c1nnc(NC(=O)C2CC2)cc1Nc1cccc(-c2ccc(S(=N)(=O)C(C)C)nc2)c1OC` (single isomer, unassigned) [WX-037B] and `CNC(=O)c1nnc(NC(=O)C2CC2)cc1Nc1cccc(-c2ccc(S(=N)(=O)C(C)C)nn2)c1OC` (single isomer, unassigned) [WX-036B] are within 1.5-fold of each other in GI50: 17 nM for the first, 17.3 nM for the second.

`[2H]C([2H])([2H])NC(=O)c1nnc(NC(=O)C2CC2)cc1Nc1cccc(-c2ccc(P(C)(C)=O)cc2)c1OC` [Hydrochloride of WX-008] and `[2H]C([2H])([2H])NC(=O)c1nnc(NC(=O)C2CC2)cc1Nc1cc(F)cc(-c2ccc(P(C)(C)=O)cc2)c1OC` [Hydrochloride of WX-027] are within 1.5-fold of each other in GI50: 16 nM for the first, 18.3 nM for the second.

`COc1c(Nc2cc(NC(=O)C3CC3)nnc2C(N)=O)cccc1-c1ccc(S(=N)(=O)C(C)C)cn1` (centres unmarked) [Hydrochloride of WX-032] and `COc1c(Nc2cc(NC(=O)C3CC3)nnc2C(N)=O)cccc1-c1ncc(S(=N)(=O)C(C)C)cn1` (centres unmarked) [Hydrochloride of WX-031] are within 1.5-fold of each other in GI50: 2.9 nM for the first, 2.6 nM for the second.

Going from `CNC(=O)c1cnc(NC(=O)C2CC2)cc1Nc1cc(F)cc(-c2ncc(S(=O)(=O)C(C)C)cn2)c1OC` [WX-030] to `CNC(=O)c1cnc(NC(=O)C2CC2)cc1Nc1cc(F)cc(-c2ccc(S(C)(=O)=O)cc2)c1OC` [Trifluoroacetate of WX-026], the GI50 rises from 2 nM to 18.8 nM (9.4-fold).

First: COc1c(Nc2cc(NC(=O)C3CC3)nnc2C(N)=O)cccc1-c1ccc(P(=O)(C2CC2)C2CC2)cn1 [Trifluoroacetate of WX-035]
Second: CN=S(=O)(c1ccc(-c2cccc(Nc3cc(NC(=O)C4CC4)nnc3C(=O)NC)c2OC)nc1)C(C)C (centres unmarked) [Trifluoroacetate of WX-014]
The GI50 of the first is 1.6-fold lower: 6.7 nM for the first, 10.9 nM for the second.

First: CNC(=O)c1cnc(NC(=O)C2CC2)cc1Nc1cccc(-c2ncc(S(=O)(=O)N3CCC3)cn2)c1OC [Hydrochloride of WX-018]
Second: CCN=S(=O)(c1cnc(-c2cccc(Nc3cc(NC(=O)C4CC4)nnc3C(=O)NC)c2OC)nc1)C(C)C (centres unmarked) [Hydrochloride of WX-015]
The GI50 of the first is 3.1-fold lower: 4.2 nM for the first, 13 nM for the second.

`CNC(=O)c1nnc(NC(=O)C2CC2)cc1Nc1cccc(-c2ncc(S3(=O)=NCCCC3)cn2)c1OC` (centres unmarked) [Hydrochloride of WX-029] gave a GI50 of 3.8 nM.
